Where a SMILES comes first, the peptide text is derived from it. [ ]: non-standard residue; d: D form.
Assays:
[1] = system: Escherichia coli (ATCC 25922); format: cell-based
Protocol: (§1) Minimum inhibition concentrations (MICs) were determined against Escherichia coli (ATCC 25922), Staphylococcus aureus (ATCC 25923), Klebsiella pneumoniae (ATCC 10031) and Pseudomonas aeruginosa (ATCC 27853). Also clinical strains of E. coli, K. pneumoniae, E. cloacae, P. aeruginosa, Serratia marcescens, Proteus mirabilis, S. pneumoniae, Acinetobacter baumannii, A. johnsonii and S. aureus were used for MICs assays. Additionally, clinical strains of yeast including Candida albicans, C. glabrata, C. parapsilosis and C. quillermondiae were used. The susceptibility of these microorganisms to Chain peptides were determined using micro broth dilution assay. Colonies of the respective microorganism from Muller Hinton (MH) agar plates incubated overnight were suspended in MH broth media and final concentration of microorganism was adjusted to 5.0×10^5 cfu/ml. An aliquot of 10 μl of each Chain peptide, or gentamicin, tetracycline as reference antibiotics were added in differing concentrations along with 90 μl of bacterial suspension to 96 well polypropylene plates and incubated at 37° C. for 20 to 24 hours. Concentrations of Chain peptides and reference antibiotics ranged from 0.125 to 128 μg/ml and the MICs were recorded as the lowest concentration with no visual growth of bacteria. Similarly, antifungal MICs were tested in Potato dextrose broth.

[2] = system: Pseudomonas aeruginosa (ATCC 27853); format: cell-based
Protocol: as §1

[3] = system: Klebsiella pneumoniae (ATCC 10031); format: cell-based
Protocol: as §1

[4] = system: Staphylococcus aureus (ATCC 25923); format: cell-based
Protocol: as §1

[5] = system: Pseudomonas aeruginosa (ATCC 27853); test: Radial diffusion assay (RDA) against P. aeruginosa; format: cell-based; settings: Peptides 50 μg; Gentamycin 5 μg; diameter including the wells
Protocol: (§2) The radial diffusion assay (RDA) was carried out as described by Andersen et al. (2010). Briefly, 30 ml of 1/10 Muller-Hinton broth (MHB) supplemented with 1% agarose and 5.0×10^5 CFU/ml S. aureus or E. coli or K. pneumoniae, P. aeruginosa cells was poured into a single-well omnitray (Nunc) and overlaid with a TSP 96-well plate. […] The peptides were also tested against Fusarium oxysporum and Verticillium dahliae, for which 1/3 potato dextrose agarose was used. To test the synergistic effect of peptides, each peptide was mixed in equimolar concentrations. Mix1 (met1-12), Mix2 (met3, 4 and 5), Mix3 (met 8, 9 and 10), Mix 4 (met11, 12) and Mix5 (8, 9, 10, 11, 12) were prepared and tested against E. coli and S. aureus. Gentamicin and vancomycin were included as positive controls for bacteria and amphotericin B was used as the control for fungi.

[6] = system: Escherichia coli, Staphylococcus aureus, Klebsiella pneumoniae and Pseudomonas aeruginosa; test: Radial diffusion assay, summary over the bacteria tested; format: cell-based; settings: Gentamicin 5 μg
Protocol: The radial diffusion assay (RDA) was carried out as described by Andersen et al. (2010). Briefly, 30 ml of 1/10 Muller-Hinton broth (MHB) supplemented with 1% agarose and 5.0×10^5 CFU/ml S. aureus or E. coli or K. pneumoniae, P. aeruginosa cells was poured into a single-well omnitray (Nunc) and overlaid with a TSP 96-well plate. One hundred μg of each synthesized peptide was tested. The peptides were also tested against Fusarium oxysporum and Verticillium dahliae, for which 1/3 potato dextrose agarose was used. To test the synergistic effect of peptides, each peptide was mixed in equimolar concentrations. Mix1 (met1-12), Mix2 (met3, 4 and 5), Mix3 (met 8, 9 and 10), Mix 4 (met11, 12) and Mix5 (8, 9, 10, 11, 12) were prepared and tested against E. coli and S. aureus. Gentamicin and vancomycin were included as positive controls for bacteria and amphotericin B was used as the control for fungi.

[7] = system: Escherichia coli (ATCC 25922); format: cell-based; settings: Peptides 50 μg; Gentamycin 5 μg; diameter including the wells
Protocol: as §2

[8] = system: Klebsiella pneumoniae (ATCC 10031); format: cell-based; settings: Peptides 50 μg; Gentamycin 5 μg; diameter including the wells
Protocol: as §2

[9] = system: Staphylococcus aureus (ATCC 25923); format: cell-based; settings: Peptides 50 μg; Gentamycin 5 μg; diameter including the wells
Protocol: as §2

[10] = system: S. aureus COL (MRSA); test: Synergistic activity with Ertapenem (4 μg/ml) against MRSA, MIC; format: cell-based, Staphylococcus aureus; settings: Ertapenem 4 μg/ml; D-form
Method in brief: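 Broth microdilution in MH broth with 5.0×10^5 cfu/ml inoculum, 37° C for 20–24 h. MIC was the lowest concentration without visible growth (range 0.125–128 μg/ml). L- and D-form peptides were tested on S. aureus RN4220 and COL (MRSA), alone and with Ertapenem at 4 μg/ml.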

| Molecule | Minimum inhibitory concentration, Escherichia coli (ATCC 25922) [1] [µg/mL] | Minimum inhibitory concentration, Pseudomonas aeruginosa (ATCC 27853) [2] [µg/mL] | Minimum inhibitory concentration, Klebsiella pneumoniae (ATCC 10031) [3] [µg/mL] | Minimum inhibitory concentration, Staphylococcus aureus (ATCC 25923) [4] [µg/mL] | Inhibition zone, Pseudomonas aeruginosa [5] [mm] | zone of inhibition over the four bacteria [6] | Inhibition zone, Escherichia coli [7] [mm] | Inhibition zone, Klebsiella pneumoniae [8] [mm] | Inhibition zone, Staphylococcus aureus [9] [mm] | MIC against MRSA strains along with Ertapenem, D-peptide [10] [µg/mL] |
| --- | --- | --- | --- | --- | --- | --- | --- | --- | --- | --- |
| Gentamicin [reference compound] | 1 | 0.25 | 0.25 | 0.25 | 24 | 22-24 mm | 22 | 22 | 24 | – |
| CC(C)C[C@@H](NC(=O)[C@@H](CCCCN)NC(=O)[C@@H](CCCCN)NC(=O)[C@@H](Cc1ccccc1)NC(=O)[C@@H](CC(C)C)NC(=O)[C@@H](Cc1c[nH]c2ccccc12)NC(=O)[C@@H](CCCNC(=N)N)NC(=O)[C@@H](Cc1c[nH]c2ccccc12)NC(=O)[C@@H](CCCCN)NC(=O)[C@@H](CCCNC(=N)N)NC(=O)[C@H](N)CCCCN)C(=O)O [Chain310D] (H-[dK][dR][dK][dW][dR][dW][dL][dF][dK][dK][dL]-OH) | – | – | – | – | – | – | – | – | – | 0.03 |

Source: US11096985B2, “Antimicrobial peptides, their variants and uses” (priority 2015, dated 2021)
